PMC12775434, “Ultra-large virtual screening unveils potent agonists of the neuromodulatory orphan receptor GPR139” (Nature Communications, 2025)
Values joined by “and” are separate entries in the source; they are usually repeats but may differ in a detail not shown here. Equal entries are not always repeated.

What was measured:
GPR139 [1] = target: T1, GPR139 (Homo sapiens, UniProt Q6DWJ6); assay: Ca2+ mobilization assay, agonist mode, stable GPR139-CHOk1 cell line; assay type: cell-based; details: Agonist mode; individual replicates (Supplementary Figure 1)
T1 sequence (Q6DWJ6 1-353): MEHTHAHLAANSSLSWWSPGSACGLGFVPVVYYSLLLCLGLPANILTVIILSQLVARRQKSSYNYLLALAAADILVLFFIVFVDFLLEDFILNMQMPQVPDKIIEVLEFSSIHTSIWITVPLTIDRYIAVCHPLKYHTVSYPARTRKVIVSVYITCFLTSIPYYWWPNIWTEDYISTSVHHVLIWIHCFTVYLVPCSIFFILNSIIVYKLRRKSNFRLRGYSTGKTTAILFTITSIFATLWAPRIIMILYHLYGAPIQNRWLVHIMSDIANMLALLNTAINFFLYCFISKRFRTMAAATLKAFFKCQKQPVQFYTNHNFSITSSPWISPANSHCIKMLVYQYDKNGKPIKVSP
Procedure: Primary screening and pharmacological characterization of compounds were performed using a CHO-K1 cell line that stably expresses human GPR139 (GPR139-CHOk1). The GPR139-CHOk1 cell line was kindly provided by H. Lundbeck A/S, Denmark[24]. GPR139-CHOk1 cells were grown in Ham’s F-12 Kaighn’s Modification Medium (ThermoFisher #21127030) supplemented with 10% dialyzed fetal bovine serum (US origin, ThermoFisher #26400044), 100 units/mL Penicillin-Streptomycin (ThermoFisher #15140122), and 1 mg/mL Geneticin (ThermoFisher #11811031). […] M1R-CHOk1 cells were purchased from The Missouri S&T cDNA Resource Center (#CEM100TN00). M1R-CHOk1 cells were grown in Ham’s F12 Medium (ThermoFisher #21765029) supplemented with 10% fetal bovine serum (Brazilian origin, ThermoFisher #10270106), 100 units/mL Penicillin-Streptomycin, and 0.25 mg/mL Geneticin. HEK293A cells transiently transfected with GPR139 were used for additional pharmacological assessment of signaling pathways activated by GPR139. HEK239A cells were generously provided by Dr. Asuka Inoue, Tohoku University, Japan. HEK293A cells were grown in Dulbecco’s Modified Eagle Medium (ThermoFisher #31966047) supplemented with 10% dialyzed fetal bovine serum and 100 units/mL Penicillin-Streptomycin. Cell lines were maintained at 37 °C in humidified incubator equilibrated with 5% CO2.
(§1) 30,000 GPR139- or M1R-CHOk1 cells/well were seeded in black clear bottom tissue culture treated 96-well plates (Greiner #655090) and grown for 20–24 h. Cells were washed with HEPES buffer (Hank’s Balanced Salt Solution (HBBS) supplemented with 20 mM HEPES, 1 mM MgCl2, and 1 mM CaCl2; pH 7.4). Cells were loaded with 50 µL of 2 µM Fluo-4 AM dye (ThermoFisher #F14202) in HEPES buffer supplemented with 2.5 mM probenecid and 0.01% Pluronic F-68 (ThermoFisher #24040032) for 1 h at 37 °C. Cells were washed with HEPES buffer. 50 µL HEPES buffer supplemented with 2.5 mM probenecid was added, and the cells were incubated for 10 min at 37 °C before measurement. 50 µL test compounds diluted in HEPES buffer from DMSO stocks (final DMSO concentration of maximally 0.3%) were added automatically after baseline measurements. The intracellular calcium mobilization was measured on a FlexStation 3 Multimode Microplate Reader (Molecular Devices) at 37 °C with filters for excitation of 485 nm and emission of 525 nm.
(§2) Our primary compound screening protocol consisted of two subsequent steps that allowed to screen for agonists and antagonists simultaneously. In the first step, the screening compounds were applied at 10 µM to test for agonist activity (agonist mode). Following 20 min incubation with the compounds added in the first step, in the second step, an EC80 concentration (800 nM) of the reference agonist Lundbeck Cmp 1a was applied to test for antagonist activity (antagonist mode).
Pharmacological data and statistical analyses were performed in GraphPad Prism v9–10 (Graphpad Software Inc., San Diego, CA), which are also specifically described in the figure and table legends. The functional assay responses were normalized to buffer (0%) and Lundbeck Cmp 1a or JNJ-63533054 (100%), for Ca^2+ and IP1 experiments in the GPR139-CHOk1 stable cell line or Ca^2+, G protein activation, and arrestin-3 recruitment experiments in the HEK293A cells transiently transfected with GPR139, respectively. Data are from at least three independent experiments, unless stated otherwise. Concentration-response curves were fitted applying non-linear regression using the log (agonist) versus response model with variable slope. ANOVA was applied for comparing results and determining statistical significance.

GPR139 [2] = target: T1, GPR139; assay: Ca2+ mobilization assay, antagonist mode (EC80 800 nM Lundbeck Cmp 1a after 20 min preincubation), GPR139-CHOk1; assay type: cell-based; details: individual replicates (Supplementary Figure 1)
Procedure: as §1
as §2, with “(antagonist mode). In the agonist mode (first step) response is seen only with compounds having agonist activity (Cmp 1a), but not with non-receptor-binding compounds (Vehicle) or antagonists (NCRW0105-E06) (Supplementary Fig. 14). […] No antagonist compounds were identified in this study.” for “(antagonist mode).”

| SMILES | Ca2+ signal (% of Cmp 1a) (GPR139 [1]) | Ca2+ signal (% of Cmp 1a) (GPR139 [2]) |
| --- | --- | --- |
| CC(C(=O)Nc1cccc(-c2nc3ccccc3n2C)c1)n1cccn1 (stereo not shown) [Compound 67, CC(C(=O)NC=1C=CC=C(C1)C2=NC=3C=CC=CC3N2C)N4C=CC=N4] | 3.19 % of Cmp 1a and -6 % of Cmp 1a and -7 % of Cmp 1a | 87.0817 % of Cmp 1a and 99.3874 % of Cmp 1a and 88.8295 % of Cmp 1a |
| Cc1sc2ncn(NC(=O)c3csc4cncn34)c(=O)c2c1C [Compound 23, CC=1SC=2N=CN(NC(=O)C3=CSC4=CN=CN34)C(=O)C2C1C] | -1 % of Cmp 1a and 11 % of Cmp 1a and -1.45 % of Cmp 1a | 92.3647 % of Cmp 1a and 68.6585 % of Cmp 1a and 94.6907 % of Cmp 1a |
| O=C(Nc1ccnc(-c2ccccc2)n1)C1COc2ccccc21 (stereo not shown) [Compound 31, O=C(NC=1C=CN=C(N1)C=2C=CC=CC2)C3COC=4C=CC=CC34] | -5 % of Cmp 1a and 0.292 % of Cmp 1a and -0.778 % of Cmp 1a | 69.7439 % of Cmp 1a and 83.7645 % of Cmp 1a and 84.6387 % of Cmp 1a |
| O=C(CCn1cnc2cc(Cl)ccc2c1=O)Nc1ccccc1F [Compound 46, FC=1C=CC=CC1NC(=O)CCN2C=NC=3C=C(Cl)C=CC3C2=O] | 2.73 % of Cmp 1a and -6 % of Cmp 1a (2×) | 71.2649 % of Cmp 1a and 88.164 % of Cmp 1a and 80.2917 % of Cmp 1a |
| CC(=O)Nc1nc(Cn2cnc3c2CC(C)C(C)C3)cs1 (stereo not shown) [Compound 47, CC1CC=2N=CN(CC3=CSC(NC(=O)C)=N3)C2CC1C] | -0.697 % of Cmp 1a and 10 % of Cmp 1a and 0.881 % of Cmp 1a | 79.7228 % of Cmp 1a and 79.8068 % of Cmp 1a and 92.3954 % of Cmp 1a |
| COCC1(CNC(=O)NCc2ccccc2)OCCc2ccccc21 (stereo not shown) [Compound 44, COCC1(CNC(=O)NCC=2C=CC=CC2)OCCC=3C=CC=CC31] | 8 % of Cmp 1a and -1.67 % of Cmp 1a and 19 % of Cmp 1a | 80.8112 % of Cmp 1a and 71.471 % of Cmp 1a and 86.0472 % of Cmp 1a |
| C[C@H](NC(=O)c1cn2cccnc2n1)c1ccccc1 [Compound 18, C[C@H](NC(=O)C1=CN2C=CC=NC2=N1)C=3C=CC=CC3] | 2.28 % of Cmp 1a and 13 % of Cmp 1a and 21 % of Cmp 1a | 80.6397 % of Cmp 1a and 68.0976 % of Cmp 1a and 80.5455 % of Cmp 1a |
| Cc1cccc(-c2nc(C(=O)N3CCc4ncccc43)c(C)[nH]2)c1 [Compound 27, CC=1NC(=NC1C(=O)N2CCC=3N=CC=CC23)C=4C=CC=C(C)C4] | -4.28 % of Cmp 1a and 11 % of Cmp 1a and 2.44 % of Cmp 1a | 81.7236 % of Cmp 1a and 71.1235 % of Cmp 1a and 80.4014 % of Cmp 1a |
| C[C@@H](NC(=O)Cn1c2c(sc1=O)CCCCC2)c1ccccc1 [Compound 55, C[C@@H](NC(=O)CN1C=2CCCCCC2SC1=O)C=3C=CC=CC3] | 18 % of Cmp 1a and -2.59 % of Cmp 1a and 22 % of Cmp 1a | 74.6627 % of Cmp 1a and 75.4146 % of Cmp 1a and 90.0274 % of Cmp 1a |
| CCc1ocnc1C(=O)Nc1cccc(C(=O)NCc2ccccc2)c1 [Compound 29, CCC=1OC=NC1C(=O)NC=2C=CC=C(C2)C(=O)NCC=3C=CC=CC3] | -4.43 % of Cmp 1a and 1.9 % of Cmp 1a and 8 % of Cmp 1a | 59.2373 % of Cmp 1a and 59.0417 % of Cmp 1a and 94.2662 % of Cmp 1a |
| Cc1ccc(NC(=O)C2Cc3ccccc32)cc1C(=O)N(C)C(C)C (stereo not shown) [Compound 41, CC(C)N(C)C(=O)C=1C=C(NC(=O)C2CC=3C=CC=CC23)C=CC1C] | 0.898 % of Cmp 1a and -4.45 % of Cmp 1a and -1.11 % of Cmp 1a | 75.8841 % of Cmp 1a and 100.088 % of Cmp 1a and 66.5963 % of Cmp 1a |
| Cc1noc(-c2ccc(C)c(NC(=O)CSc3nncs3)c2)n1 [Compound 65, CC1=NOC(=N1)C=2C=CC(C)=C(NC(=O)CSC3=NN=CS3)C2] | 2.7 % of Cmp 1a and 1.38 % of Cmp 1a and -3.61 % of Cmp 1a | 71.2308 % of Cmp 1a and 90.2803 % of Cmp 1a and 89.1818 % of Cmp 1a |
| Cc1nn(C)c2nc(C(=O)N[C@@H](C)c3ccccc3)ccc12 [Compound 15, C[C@H](NC(=O)C=1C=CC=2C(C)=NN(C)C2N1)C=3C=CC=CC3] | -11 % of Cmp 1a and 0.224 % of Cmp 1a and 7.56 % of Cmp 1a | 88.3523 % of Cmp 1a and 83.7132 % of Cmp 1a and 99.0735 % of Cmp 1a |
| Cn1ccc(CNC(=O)Nc2cc(-c3cc(F)cc(F)c3)nn2C)c1 [Compound 39, CN1C=CC(CNC(=O)NC2=CC(=NN2C)C=3C=C(F)C=C(F)C3)=C1] | -2.56 % of Cmp 1a and -1.6 % of Cmp 1a and -1.54 % of Cmp 1a | 63.6266 % of Cmp 1a and 84.5465 % of Cmp 1a and 97.4779 % of Cmp 1a |
| Cn1c(SCC(=O)Nc2c(F)cccc2F)nc2ccccc21 [Compound 30, CN1C(SCC(=O)NC=2C(F)=CC=CC2F)=NC=3C=CC=CC13] | -6.62 % of Cmp 1a and 1.6 % of Cmp 1a and 14 % of Cmp 1a | 67.1888 % of Cmp 1a and 62.1843 % of Cmp 1a and 60.1781 % of Cmp 1a |
| CN(Cc1nnc[nH]1)c1nc(-c2cc(Cl)cc(Cl)c2)no1 [Compound 25, CN(CC1=NN=CN1)C2=NC(=NO2)C=3C=C(Cl)C=C(Cl)C3] | 4.25 % of Cmp 1a and 1 % of Cmp 1a and 14 % of Cmp 1a | 70.9298 % of Cmp 1a and 72.5727 % of Cmp 1a and 87.7637 % of Cmp 1a |
| Cc1nnnn1C(=Cc1ccccc1)C(=O)N[C@@H](C)c1ccccc1 [Compound 17, C[C@H](NC(=O)C(=CC=1C=CC=CC1)N2N=NN=C2C)C=3C=CC=CC3] | 4.36 % of Cmp 1a and -2.84 % of Cmp 1a and 2.54 % of Cmp 1a | 61.7351 % of Cmp 1a and 85.7644 % of Cmp 1a and 78.6356 % of Cmp 1a |
